# Experiments:
# [1] = system: hepatic tumors; conditions: high concentration; chronic toxicology study; cited from earlier work
# [2] = target: T1, MT2 receptors (Homo sapiens, UniProt P49286); conditions: relative to parent drug; cited from earlier work
# T1 sequence (P49286 1-362): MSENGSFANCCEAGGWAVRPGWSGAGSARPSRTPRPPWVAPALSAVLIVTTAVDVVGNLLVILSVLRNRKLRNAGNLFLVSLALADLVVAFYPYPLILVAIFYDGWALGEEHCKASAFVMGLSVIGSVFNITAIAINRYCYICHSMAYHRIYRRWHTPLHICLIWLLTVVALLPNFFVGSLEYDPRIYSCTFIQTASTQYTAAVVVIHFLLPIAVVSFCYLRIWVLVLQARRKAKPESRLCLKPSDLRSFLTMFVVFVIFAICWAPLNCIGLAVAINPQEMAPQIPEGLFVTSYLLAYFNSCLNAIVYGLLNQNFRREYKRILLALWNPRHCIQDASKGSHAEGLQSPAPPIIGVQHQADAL
# [3] = target: MT1 receptors (Homo sapiens, UniProt P48039); conditions: relative to parent drug; cited from earlier work
# Chain of MT1 receptors (P48039 whole entry): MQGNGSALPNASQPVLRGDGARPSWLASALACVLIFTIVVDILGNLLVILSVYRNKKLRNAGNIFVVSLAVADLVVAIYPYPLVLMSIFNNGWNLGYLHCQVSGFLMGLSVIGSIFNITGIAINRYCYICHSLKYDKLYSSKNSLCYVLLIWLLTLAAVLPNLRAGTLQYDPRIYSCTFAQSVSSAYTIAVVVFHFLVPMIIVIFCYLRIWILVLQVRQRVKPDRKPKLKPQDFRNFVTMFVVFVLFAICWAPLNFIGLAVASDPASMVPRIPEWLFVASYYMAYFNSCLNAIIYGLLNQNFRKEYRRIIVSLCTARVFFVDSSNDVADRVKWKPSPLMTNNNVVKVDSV
# [4] = system: other CNS receptors associated with sedation (e.g., GABA, dopamine, opiate, serotonin); conditions: cited from earlier work
# [5] = Pharmacokinetics of ramelteon after nasal and oral administration; parameters: species or system SD rats; conditions: Sprague-Dawley (SD), rat, in vivo
# Method: The objective was to study the pharmacokinetics of Ramelteon by determining the plasma concentrations after oral and intranasal administration. SD rats (n=3-4 for each dose) received an intranasal dose (0.1 mg/animal) of nasal solution composition (RNS-01, 2.5 mg/mL) which was prepared according to the EXAMPLE 1 of this invention, and an oral dose (0.1 mg/animal) of […] oral solution (ROS-01) which was prepared by directly dissolving ramelteon into saline solution to the final concentration of 0.1 mg/mL. Multiple blood samples were collected from tail vein until 6 hrs. Ramelteon concentration in rat plasma was determined using a validated LC/MS/MS method. The standard non-compartmental method was used to generate the pharmacokinetic parameters.
# [6] = cited from earlier work
# [7] = system: Caco-2 monolayer; assay: Permeability through Caco-2 monolayer; format: in vitro ADME; conditions: in vitro
"improvement of bioavailability, intranasal versus oral solution of same dose [5]",permeability through Caco-2 monolayer [7],SMILES,incidence of hepatic tumors [1],binding affinity for MT2 receptor relative to ramelteon [2],binding affinity for MT1 receptor relative to ramelteon [3],affinity for other CNS receptors [4],"increase of systemic exposure (AUC) after co-administration of fluvoxamine ([6]; fluvoxamine, a strong CYP1A2 inhibitor)",inter-subject variability ([6]; oral ramelteon)
–,–,CC(O)C(=O)NCCC1CCc2ccc3c(c21)CCO3 (centres unmarked) [M-II],increase the incidence of hepatic tumors,one-fifth,about one-tenth,–,–,–
over 20 fold,high permeability,CCC(=O)NCC[C@@H]1CCc2ccc3c(c21)CCO3 [ramelteon],–,–,–,no affinity,approximately 190 fold,up to 100%
